Data from ChEMBL document CHEMBL4270599, “Synthesis of a 3'-C-ethynyl-β-d-ribofuranose purine nucleoside library: Discovery of C7-deazapurine analogs as potent antiproliferative nucleosides” (Eur J Med Chem, 2018).
Calls of active or inactive are those of the source. No cut-off for these calls is given here.

Assays:
HT-29 = assay: Growth inhibition of human HT-29 cells assessed as cell growth at 10^-5 M incubated for 48 hrs by sulforhodamine B assay relative to control; type: functional; settings: HT-29, 48 h, read-out: Activity
EKVX = assay: Growth inhibition of human EKVX cells assessed as cell growth at 10^-5 M incubated for 48 hrs by sulforhodamine B assay relative to control; type: functional; settings: read-out: Activity
HOP-62 = assay: Growth inhibition of human HOP62 cells assessed as cell growth at 10^-4 M incubated for 48 hrs by sulforhodamine B assay relative to control; type: functional; settings: HOP-62, 48 h, read-out: Activity
M14 = assay: Growth inhibition of human M14 cells assessed as cell growth at 10^-4 M incubated for 48 hrs by sulforhodamine B assay relative to control; type: functional; settings: M14, 48 h, read-out: Activity
SK-MEL-5 = assay: Growth inhibition of human SK-MEL-5 cells assessed as cell growth at 10^-4 M incubated for 48 hrs by sulforhodamine B assay relative to control; type: functional; settings: SK-MEL-5, 48 h, read-out: Activity
Homo sapiens [1] = assay: Antitumor activity against human MDA-MB-231-LM2 cells xenografted in SCID mouse assessed as decrease in tumor size at 0.3 mg/kg, it 3 times a week for 2 consecutive weeks starting 10 days post inoculation; type: functional, organism-based
[2] = Antitumor activity against human MDA-MB-231-LM2 cells xenografted in SCID mouse assessed as tumor weight at 0.3 mg/kg, it 3 times a week for 2 consecutive weeks starting 10 days post inoculation measured at day 35 (reference value: 551 +/- 74 mg); type: functional
Homo sapiens [3] = assay: Antitumor activity against human MDA-MB-231-LM2 cells xenografted in SCID mouse assessed as inhibition of lung metastasis at 0.3 mg/kg, it 3 times a week for 2 consecutive weeks starting 10 days post inoculation measured at day 34; type: functional, organism-based

Structure (SMILES) | growth at 10 µM (HT-29) [%] | growth at 10 µM (EKVX) [%] | growth at 100 µM (HOP-62) [%] | growth at 100 µM (M14) [%] | growth at 100 µM (SK-MEL-5) [%] | Activity (Homo sapiens [1]) | Activity [2] [mg] | Activity (Homo sapiens [3])
C#C[C@@]1(O)[C@@H](CO)O[C@@H](n2cc(Br)c3c(N)ncnc32)[C@@H]1O | 1 to 3 | – | – | – | – | – | – | –
C#C[C@@]1(O)[C@@H](CO)O[C@@H](n2ccc3c(N)ncnc32)[C@@H]1O | – | -24 | -10 | -88 | -99 | – | – | –
C#C[C@@]1(O)[C@@H](CO)O[C@@H](n2cc(F)c3c(N)ncnc32)[C@@H]1O | 2 | 1 | -15 | -47 | -93 | – | – | –
C#C[C@@]1(O)[C@@H](CO)O[C@@H](n2cc(Cl)c3c(N)ncnc32)[C@@H]1O | – | – | – | – | – | Active | 241 | Active
